From the NIST ThermoML archive (doi:10.1016/j.jct.2012.09.016)
Numbers after ± are expanded uncertainties.

Key:
[1] = Liquid, Vibrating tube method
[2] = molar heat capacity at constant pressure; settings: Liquid, Small sample (50 mg) DSC

CCCCCCN [1-hexanamine]
Settings | mass density, [1] [kg/m3] | molar heat capacity at constant pressure, [2] [J/K/mol]
293.15 K, 100 kPa | 765 ± 0.3 | –
293.15 K, 10000 kPa | 771.2 ± 0.4 | –
293.15 K, 20000 kPa | 777.4 ± 0.5 | –
293.15 K, 30000 kPa | 783.2 ± 0.6 | –
293.15 K, 40000 kPa | 788.6 ± 0.7 | –
293.15 K, 50000 kPa | 793.7 ± 0.8 | –
293.15 K, 60000 kPa | 798.6 ± 0.9 | –
293.15 K, 70000 kPa | 803.1 ± 1 | –
293.15 K, 80000 kPa | 807.5 ± 1.1 | –
293.15 K, 90000 kPa | 811.8 ± 1.1 | –
293.15 K, 100000 kPa | 815.8 ± 1.2 | –
293.15 K, 110000 kPa | 819.6 ± 1.3 | –
293.15 K, 120000 kPa | 823.3 ± 1.4 | –
293.15 K, 130000 kPa | 826.9 ± 1.4 | –
293.15 K, 140000 kPa | 830.3 ± 1.5 | –
313.15 K, 100 kPa | – | 253.5 ± 4.4
313.15 K, 20000 kPa | – | 251 ± 4.3
313.15 K, 40000 kPa | – | 250.1 ± 4.3
313.15 K, 60000 kPa | – | 248.9 ± 4.3
323.15 K, 100 kPa | – | 253.7 ± 4.4
323.15 K, 20000 kPa | – | 251.5 ± 4.4
323.15 K, 40000 kPa | – | 250.5 ± 4.3
323.15 K, 60000 kPa | – | 249.3 ± 4.3
333.15 K, 100 kPa | – | 254.4 ± 4.4
333.15 K, 20000 kPa | – | 252.4 ± 4.4
333.15 K, 40000 kPa | – | 251.2 ± 4.4
333.15 K, 60000 kPa | – | 250.1 ± 4.3
343.15 K, 100 kPa | – | 255.7 ± 4.4
343.15 K, 20000 kPa | – | 253.6 ± 4.4
343.15 K, 40000 kPa | – | 252.3 ± 4.4
343.15 K, 60000 kPa | – | 251.3 ± 4.4
353.15 K, 100 kPa | 712.4 ± 0.3 | 257.5 ± 4.5
353.15 K, 10000 kPa | 722.4 ± 0.4 | –
353.15 K, 20000 kPa | 731.1 ± 0.6 | 255.2 ± 4.4
353.15 K, 30000 kPa | 739.1 ± 0.7 | –
353.15 K, 40000 kPa | 746.2 ± 0.8 | 253.8 ± 4.4
353.15 K, 50000 kPa | 752.8 ± 0.9 | –
353.15 K, 60000 kPa | 758.9 ± 1 | 252.8 ± 4.4
353.15 K, 70000 kPa | 764.7 ± 1.1 | –
353.15 K, 80000 kPa | 770.1 ± 1.2 | –
353.15 K, 90000 kPa | 775.2 ± 1.3 | –
353.15 K, 100000 kPa | 780.1 ± 1.4 | –
353.15 K, 110000 kPa | 784.7 ± 1.5 | –
353.15 K, 120000 kPa | 789.2 ± 1.6 | –
353.15 K, 130000 kPa | 793.4 ± 1.7 | –
353.15 K, 140000 kPa | 797.5 ± 1.8 | –
363.15 K, 100 kPa | 703.9 ± 0.3 | 259.8 ± 4.5
363.15 K, 10000 kPa | 714.4 ± 0.4 | –
363.15 K, 20000 kPa | 723.6 ± 0.6 | 257.2 ± 4.5
363.15 K, 30000 kPa | 731.9 ± 0.7 | –
363.15 K, 40000 kPa | 739.3 ± 0.8 | 255.6 ± 4.4
363.15 K, 50000 kPa | 746.2 ± 0.9 | –
363.15 K, 60000 kPa | 752.6 ± 1 | 254.7 ± 4.4
363.15 K, 70000 kPa | 758.5 ± 1.1 | –
363.15 K, 80000 kPa | 764.1 ± 1.2 | –
363.15 K, 90000 kPa | 769.4 ± 1.3 | –
363.15 K, 100000 kPa | 774.4 ± 1.4 | –
363.15 K, 110000 kPa | 779.1 ± 1.5 | –
363.15 K, 120000 kPa | 783.6 ± 1.6 | –
363.15 K, 130000 kPa | 787.9 ± 1.7 | –
363.15 K, 140000 kPa | 792.1 ± 1.8 | –
373.15 K, 100 kPa | 694.8 ± 0.3 | 262.6 ± 4.5
373.15 K, 10000 kPa | 706 ± 0.4 | –
373.15 K, 20000 kPa | 716 ± 0.6 | 259.6 ± 4.5
373.15 K, 30000 kPa | 724.5 ± 0.7 | –
373.15 K, 40000 kPa | 732.4 ± 0.8 | 257.8 ± 4.5
373.15 K, 50000 kPa | 739.5 ± 0.9 | –
373.15 K, 60000 kPa | 746.1 ± 1.1 | 256.9 ± 4.4
373.15 K, 70000 kPa | 752.2 ± 1.2 | –
373.15 K, 80000 kPa | 758.1 ± 1.3 | –
373.15 K, 90000 kPa | 763.5 ± 1.4 | –
373.15 K, 100000 kPa | 768.7 ± 1.5 | –
373.15 K, 110000 kPa | 773.5 ± 1.6 | –
373.15 K, 120000 kPa | 778.2 ± 1.7 | –
373.15 K, 130000 kPa | 782.6 ± 1.8 | –
373.15 K, 140000 kPa | 786.9 ± 1.9 | –
383.15 K, 100 kPa | 686.1 ± 0.3 | –
383.15 K, 10000 kPa | 698.2 ± 0.4 | –
383.15 K, 20000 kPa | 708.6 ± 0.6 | 262.3 ± 4.5
383.15 K, 30000 kPa | 717.6 ± 0.7 | –
383.15 K, 40000 kPa | 725.8 ± 0.8 | 260.3 ± 4.5
383.15 K, 50000 kPa | 733.3 ± 1 | –
383.15 K, 60000 kPa | 740.2 ± 1.1 | 259.5 ± 4.5
383.15 K, 70000 kPa | 746.5 ± 1.2 | –
383.15 K, 80000 kPa | 752.5 ± 1.3 | –
383.15 K, 90000 kPa | 758.1 ± 1.4 | –
383.15 K, 100000 kPa | 763.4 ± 1.5 | –
383.15 K, 110000 kPa | 768.3 ± 1.6 | –
383.15 K, 120000 kPa | 773.2 ± 1.7 | –
383.15 K, 130000 kPa | 777.7 ± 1.8 | –
383.15 K, 140000 kPa | 782 ± 1.9 | –
393.15 K, 100 kPa | 676.2 ± 0.3 | –
393.15 K, 10000 kPa | 689.2 ± 0.5 | –
393.15 K, 20000 kPa | 700.3 ± 0.6 | 265.3 ± 4.6
393.15 K, 30000 kPa | 709.8 ± 0.7 | –
393.15 K, 40000 kPa | 718.4 ± 0.9 | 263.1 ± 4.6
393.15 K, 50000 kPa | 726.6 ± 1 | –
393.15 K, 60000 kPa | 733.7 ± 1.1 | 262.4 ± 4.5
393.15 K, 70000 kPa | 740.3 ± 1.2 | –
393.15 K, 80000 kPa | 746.5 ± 1.3 | –
393.15 K, 90000 kPa | 752.2 ± 1.4 | –
393.15 K, 100000 kPa | 757.7 ± 1.5 | –
393.15 K, 110000 kPa | 762.9 ± 1.6 | –
393.15 K, 120000 kPa | 767.8 ± 1.7 | –
393.15 K, 130000 kPa | 772.5 ± 1.8 | –
393.15 K, 140000 kPa | 776.9 ± 1.9 | –
403.15 K, 100 kPa | 666.9 ± 0.3 | –
403.15 K, 10000 kPa | 680.9 ± 0.5 | –
403.15 K, 20000 kPa | 692.5 ± 0.6 | 268.8 ± 4.7
403.15 K, 30000 kPa | 702.8 ± 0.7 | –
403.15 K, 40000 kPa | 711.7 ± 0.9 | 266.4 ± 4.6
403.15 K, 50000 kPa | 719.9 ± 1 | –
403.15 K, 60000 kPa | 727.2 ± 1.1 | 265.7 ± 4.6
403.15 K, 70000 kPa | 734.1 ± 1.2 | –
403.15 K, 80000 kPa | 740.4 ± 1.4 | –
403.15 K, 90000 kPa | 746.5 ± 1.5 | –
403.15 K, 100000 kPa | 752.1 ± 1.6 | –
403.15 K, 110000 kPa | 757.4 ± 1.7 | –
403.15 K, 120000 kPa | 762.5 ± 1.8 | –
403.15 K, 130000 kPa | 767.2 ± 1.9 | –
403.15 K, 140000 kPa | 771.8 ± 2 | –
